{
  "source": "patent US20260308158A1",
  "about": "“TARGETING RNAS ASSOCIATED WITH TAUOPATHIES WITH SMALL MOLECULES” (University of Florida Research Foundation, Incorporated, priority 2023, published 2026)",
  "key": {"WT I17T mutant RNA": {"biological_target": "WT I17T mutant RNA", "experiment": "Fluorescent binding affinity, WT I17T mutant RNA", "method": "(§1) Fluorescent Binding Affinity Measurements. Binding assays were completed as previously described.^30 Briefly, the RNA of interest was folded in 1× Assay Buffer-1 (AB1: 8 mM Na2HPO4, pH 7.0, 185 mM NaCl, and 1 mM EDTA) by heating at 95° C. for 30 s followed by slowly cooling to room temperature. Bovine serum albumin (BSA) was then added to a final concentration of 40 μg/mL to afford 1× Assay Buffer-2 (AB2: 8 mM Na2HPO4, pH 7.0, 185 mM NaCl, 1 mM EDTA, and 40 μg/mL BSA). The RNA solution was serial diluted with 1×AB2. Then, compound of interest was added to the RNA solutions to a final concentration of 0.5 μM. […] Fluorescence intensity was measured using a Tecan Plate Reader (Gain: 100, Integration time: 40 μs). […] The change in fluorescence of the small molecule was calculated by its comparison to samples lacking RNA. Binding affinity was calculated using Equation 1, as previously described:^30\n(§2) where I and I0 are the measured fluorescence intensity of the compound with or without RNA, respectively, Δε is the difference between the fluorescence intensity with the infinite concentration of RNA and the fluorescence intensity without RNA, [SM]0 and [RNA]0 are the concentrations of the small molecule (SM) and RNA, respectively, and Kd is the dissociation constant."}, "7-deaza-guanosine WT RNA": {"biological_target": "7-deaza-guanosine WT RNA", "experiment": "Fluorescent binding affinity, 7-deaza-guanosine WT RNA", "details": "n=3, read-out: Kd (affinity for the modified RNA)", "method": "as §1, §2"}, "[1]": {"test_system": "dually labeled DDPAC MAPT SRE RNA / U1 snRNA mimic", "experiment": "U1 snRNA mimic FRET-based quenching assay", "type": "biochemical", "method": "U1 snRNA Mimic Quenching Assay. A 200 nM aliquot of dually labeled model of the DDPAC RNA (5′-FAM-[…]-BHQ-1-3′ (SEQ ID NO: 5); where FAM is 5 (6)-Carboxyfluorescein and BHQ-1 is black hole quencher) was folded in 1× Assay Buffer as described in Fluorescent Binding Affinity Measurements. Compound of interest at the indicated concentration was added, and the samples were incubated at room temperature in the dark for 15 min. A U1 snRNA mimic with sequence 5′-[…]-3′ (SEQ ID NO: 6) was then added to the samples to a final concentration of 20 μM. The fluorescence intensity of FAM was measured as a function of time for 1 h using a […] plate reader, with excitation and emission wavelengths of 485 and 525 nm, respectively."}},
  "data": [
    {"molecule": "COc1cc(N)ncc1CCCN(C)CCCn1cnc2c3ccccc3n(C)c2c1=O", "note": "[Compound 2, 3-(3-((3-(6-amino-4-methoxypyridin-3-yl)propyl)(methyl)amino)propyl)-5-methyl-3,5-dihydro-4H-pyrimido[5,4-b]indol-4-one]", "values": [
      {"measurement": "Kd (estimated; no saturable binding)", "setting": "WT I17T mutant RNA", "value": "> 50", "unit": "µM"},
      {"measurement": "Kd", "setting": "7-deaza-guanosine WT RNA", "value": "3.4 ± 0.9", "unit": "µM"},
      {"measurement": "more potent than 1 in multiple biochemical assays", "setting": "[1]; 2 vs 1, multiple biochemical assays", "value": "at least 6 fold"},
      {"measurement": "rate of increase of FAM signal (unfolding by U1 snRNA mimic)", "setting": "[1]; compound 10 μM, vehicle 0.49 min-1", "value": 0.37, "unit": "min⁻¹"},
      {"measurement": "lower IC50 compared with 1", "setting": "[1]; end-point FRET assay (FIG. 15C), 2 vs 1", "value": "around 5 fold"},
      {"measurement": "IC50", "setting": "[1]; end-point measurement (5 min), read-out: IC50, reduction in FAM fluorescence (U1 snRNA mimic binding)", "value": "0.9 ± 0.2", "unit": "µM"}
    ]}
  ]
}
